Laboratory results: patent publication US20030224525A1, “Enhanced photophysics of conjugated polymers” (The University of Chicago, priority 2002, published 2003)

Assay: Particle size by dynamic light scattering
Format: physicochemical
Details: in solution; complex 1:1 mole ratio, filtered with 100 nanometer filter
Method: More striking results come from fluorescence microscopy of the polymer-surfactant complex (1:1 mole ratio). After filtration with a 100 nanometer filter, the 5×10^−5 M complex solution is perfectly clear and suitable for spectroscopic studies. However, when spread on a glass substrate (microscope slide) with a cover glass, incubated for 10 minutes at room temperature and observed under a 100×oil immerse objective, the polymer-surfactant complex consists of bright, uniform and well-defined nano-sized particles (FIG. 2A). […] The particle size was measured using dynamic light scattering methods. […] As a comparison, the measured particle size in pure MPS-PPV solution is about 9 nm with a broad gaussian distribution; while pure DOTAP solution contains particles ( presumably lipid bilayer assemblies) with a mean diameter of 57 nm, consistent with the literature value. The sizes of the polymer and complex particles are consistent with the results from fluorescence correlation spectroscopic experiments.
Since the spectra in FIG. 1 indicated the possibility of a second complex component in the polymer-surfactant mixture, the solution emission was examined using a shorter excitation wavelength (400 nm). As shown in FIG. 3 (inset A), the solution does container a very low concentration of species emitting at 465 nm. […]

CCCCCCCC/C=C\CCCCCCCC(=O)OCC(C[N+](C)(C)C)OC(=O)CCCCCCC/C=C\CCCCCCCC.[Cl-] (stereo not shown) [DOTAP, N-[1-(2,3-Dioleoyloxy)propyl]-N,N,N,-trimethylammonium chloride]
average particle size: 57 nm
